Laboratory results published in ChEMBL document CHEMBL4673406, “Discovery and Preclinical Evaluation of BMS-986242, a Potent, Selective Inhibitor of Indoleamine-2,3-dioxygenase 1” (ACS Med Chem Lett, 2021).

Experiments:
[1] = AUC in mouse at 6 mg/kg, po; assay type: ADME, organism-based; set-up: dose 6 mg/kg; conditions: in vivo
[2] = AUC in mouse at 0.5 mg/kg, iv; assay type: ADME, organism-based; set-up: dose 0.5 mg/kg; conditions: in vivo
[3] = Half life in rat at 0.5 mg/kg, iv; assay type: ADME, organism-based; conditions: in vivo
[4] = Metabolic stability in dog hepatocytes assessed as UGT-mediated compound glucuronidation by measuring half life; assay type: ADME, cell-based, Canis lupus familiaris, Hepatocyte
[5] = AUC in rat at 6 mg/kg, po; assay type: ADME, organism-based; set-up: dose 6 mg/kg; conditions: in vivo
[6] = Metabolic stability in cynomolgus monkey hepatocytes assessed as UGT-mediated compound glucuronidation by measuring half life; assay type: ADME, cell-based, Macaca fascicularis, Hepatocyte
Cytochrome P450 2C8 = target: T1, Cytochrome P450 2C8 (Homo sapiens, UniProt P10632); test: Inhibition of human CYP2C8; assay type: ADME
T1 sequence (P10632 whole entry): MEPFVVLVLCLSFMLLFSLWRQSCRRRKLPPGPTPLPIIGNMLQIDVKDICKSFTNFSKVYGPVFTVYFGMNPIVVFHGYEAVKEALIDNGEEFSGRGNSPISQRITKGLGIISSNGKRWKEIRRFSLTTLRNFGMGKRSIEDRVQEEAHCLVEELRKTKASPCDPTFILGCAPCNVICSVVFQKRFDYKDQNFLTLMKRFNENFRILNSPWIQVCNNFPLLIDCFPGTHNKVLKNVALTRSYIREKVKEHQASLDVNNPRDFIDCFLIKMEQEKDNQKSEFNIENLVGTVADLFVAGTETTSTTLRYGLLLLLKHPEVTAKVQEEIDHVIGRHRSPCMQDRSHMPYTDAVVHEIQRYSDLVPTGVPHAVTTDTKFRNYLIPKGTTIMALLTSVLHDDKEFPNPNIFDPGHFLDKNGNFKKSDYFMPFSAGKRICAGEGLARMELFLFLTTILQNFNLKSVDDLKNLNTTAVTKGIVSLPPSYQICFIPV

[7] = AUC in dog at 1 mg/kg, iv; assay type: ADME, organism-based, Canis lupus familiaris; set-up: dose 1 mg/kg; conditions: in vivo
[8] = Permeability across basal to apical side in human Caco-2 cells; assay type: ADME, cell-based; conditions: read-out: permeability
[9] = target: Indoleamine 2,3-dioxygenase 1 (Mus musculus) (UniProt P28776); test: In vivo inhibition of IDO1 in nu/nu mouse xenografted with human SK-OV-3 cells assessed as reduction in kynurenine level at 3 mg/kg, po qd by HPLC-MS/MS analysis relative to control; assay type: functional, organism-based
Chain of Indoleamine 2,3-dioxygenase 1 (Mus musculus) (P28776 whole entry, looked up): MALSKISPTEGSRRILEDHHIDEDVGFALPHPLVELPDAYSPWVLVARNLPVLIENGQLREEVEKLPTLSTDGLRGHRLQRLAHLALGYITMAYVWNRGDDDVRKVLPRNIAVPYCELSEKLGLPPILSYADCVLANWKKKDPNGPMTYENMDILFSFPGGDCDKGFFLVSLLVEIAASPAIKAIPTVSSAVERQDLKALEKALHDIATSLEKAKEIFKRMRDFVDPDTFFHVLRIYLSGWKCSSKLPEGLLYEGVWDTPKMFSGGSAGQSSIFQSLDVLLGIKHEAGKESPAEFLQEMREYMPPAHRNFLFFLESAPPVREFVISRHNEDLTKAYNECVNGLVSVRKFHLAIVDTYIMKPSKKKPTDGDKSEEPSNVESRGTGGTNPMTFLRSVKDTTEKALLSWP

[10] = AUC in rat at 0.5 mg/kg, iv; assay type: ADME, organism-based; set-up: dose 0.5 mg/kg; conditions: in vivo
[11] = target: Indoleamine 2,3-dioxygenase 1 (Homo sapiens, UniProt P14902); test: Inhibition of IDO1 in IFNgamma/LPS-stimulated human whole blood preincubated for 4 hrs followed by IFNgamma/LPS stimulation and incubated for 18 hrs by Rapid-fire mass spectrometry analysis; assay type: tissue-based
Chain of Indoleamine 2,3-dioxygenase 1 (P14902 whole entry): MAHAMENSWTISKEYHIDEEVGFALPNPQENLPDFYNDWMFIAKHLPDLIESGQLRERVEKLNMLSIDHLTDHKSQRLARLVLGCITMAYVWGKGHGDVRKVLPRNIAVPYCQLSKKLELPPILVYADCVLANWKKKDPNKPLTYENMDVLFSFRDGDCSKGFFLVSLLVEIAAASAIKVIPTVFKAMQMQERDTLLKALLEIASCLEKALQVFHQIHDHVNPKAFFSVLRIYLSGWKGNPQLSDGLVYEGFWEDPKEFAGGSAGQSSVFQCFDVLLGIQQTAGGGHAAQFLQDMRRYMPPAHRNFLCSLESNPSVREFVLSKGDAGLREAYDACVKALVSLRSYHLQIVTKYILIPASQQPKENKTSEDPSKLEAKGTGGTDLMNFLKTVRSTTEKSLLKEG

[12] = Metabolic stability in dog hepatocytes assessed as CYP450-mediated compound metabolism by measuring half life; assay type: ADME, cell-based, Canis lupus familiaris, Hepatocyte
[13] = target: Acetylcholine receptor subunit alpha (Homo sapiens, UniProt P02708); test: Inhibition of alpha1 nAChR (unknown origin)
Chain of Acetylcholine receptor subunit alpha (P02708 whole entry): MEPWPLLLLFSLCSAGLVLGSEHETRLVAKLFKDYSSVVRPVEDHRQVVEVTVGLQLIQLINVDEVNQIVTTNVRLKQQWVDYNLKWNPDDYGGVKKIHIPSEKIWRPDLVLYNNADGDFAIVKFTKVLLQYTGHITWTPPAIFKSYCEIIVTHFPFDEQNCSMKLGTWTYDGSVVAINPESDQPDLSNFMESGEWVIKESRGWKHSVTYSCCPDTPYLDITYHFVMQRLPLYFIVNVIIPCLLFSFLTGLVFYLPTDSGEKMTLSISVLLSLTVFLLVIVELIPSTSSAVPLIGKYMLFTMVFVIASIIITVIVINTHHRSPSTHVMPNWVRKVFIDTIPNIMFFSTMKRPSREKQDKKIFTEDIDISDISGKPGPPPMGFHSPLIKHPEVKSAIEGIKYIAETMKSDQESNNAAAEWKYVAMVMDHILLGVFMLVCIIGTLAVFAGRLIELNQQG

alpha7 nAChR = alpha7 nAChR (Homo sapiens, UniProt P36544); test: Inhibition of alpha7 nAChR (unknown origin) relative to control; conditions: read-out: Imax
Chain of alpha7 nAChR (P36544 whole entry): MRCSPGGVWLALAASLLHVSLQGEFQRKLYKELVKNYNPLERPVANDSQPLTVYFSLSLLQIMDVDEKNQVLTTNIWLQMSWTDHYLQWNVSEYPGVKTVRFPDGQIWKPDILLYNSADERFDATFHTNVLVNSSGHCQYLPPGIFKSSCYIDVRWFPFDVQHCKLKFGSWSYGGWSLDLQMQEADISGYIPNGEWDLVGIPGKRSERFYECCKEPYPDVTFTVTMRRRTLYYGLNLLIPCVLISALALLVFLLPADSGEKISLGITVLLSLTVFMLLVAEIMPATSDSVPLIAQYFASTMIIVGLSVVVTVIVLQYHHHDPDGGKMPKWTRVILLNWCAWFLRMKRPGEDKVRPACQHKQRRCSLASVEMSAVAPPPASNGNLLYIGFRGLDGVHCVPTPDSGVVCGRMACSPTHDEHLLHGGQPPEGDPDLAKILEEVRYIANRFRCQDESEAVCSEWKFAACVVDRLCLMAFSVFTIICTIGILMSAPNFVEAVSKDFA

Cytochrome P450 2C9 = Cytochrome P450 2C9 (Homo sapiens, UniProt P11712); test: Inhibition of human CYP2C9; assay type: ADME
Chain of Cytochrome P450 2C9 (P11712 whole entry): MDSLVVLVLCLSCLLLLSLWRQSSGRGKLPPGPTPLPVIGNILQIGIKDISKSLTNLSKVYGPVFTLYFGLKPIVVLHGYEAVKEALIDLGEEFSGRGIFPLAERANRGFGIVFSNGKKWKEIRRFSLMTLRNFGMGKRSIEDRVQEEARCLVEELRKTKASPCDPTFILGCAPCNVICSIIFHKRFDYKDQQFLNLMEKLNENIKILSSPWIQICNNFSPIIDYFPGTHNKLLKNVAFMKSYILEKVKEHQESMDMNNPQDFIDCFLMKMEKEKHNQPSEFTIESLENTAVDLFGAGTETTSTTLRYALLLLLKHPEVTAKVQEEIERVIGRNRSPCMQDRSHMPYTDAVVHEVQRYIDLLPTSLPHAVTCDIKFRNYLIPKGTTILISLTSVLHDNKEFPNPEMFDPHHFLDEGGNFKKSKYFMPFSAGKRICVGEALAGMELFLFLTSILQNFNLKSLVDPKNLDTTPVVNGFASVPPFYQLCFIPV

[14] = Oral bioavailability in dog at 5 mg/kg; assay type: ADME, organism-based, Canis lupus familiaris; conditions: in vivo
[15] = Permeability across apical to basal side in human Caco-2 cells; assay type: ADME, cell-based; conditions: read-out: permeability
Cytochrome P450 = Cytochrome P450 (Homo sapiens, UniProt P04798+P05177+P05181+P08684+P10632+P10635+P11509+P11712+P13584+P20813+P20815+P20853+P24462+P24903+P33260+P33261+P51589+P78329+P98187+Q02928+Q08477+Q16678+Q16696+Q5TCH4+Q6VVX0+Q7Z449+Q8TAV3+Q96SQ9+Q9HB55); test: Metabolic stability in human hepatocytes assessed as CYP450-mediated compound metabolism by measuring half life; assay type: ADME, cell-based, Hepatocyte
[16] = AUC in cynomolgus monkey at 5 mg/kg, po; assay type: ADME, organism-based, Macaca fascicularis; set-up: dose 5 mg/kg; conditions: in vivo
[17] = Metabolic stability in mouse hepatocytes assessed as UGT-mediated compound glucuronidation by measuring half life; assay type: ADME, cell-based, Hepatocyte
[18] = target: Neuronal acetylcholine receptor subunit alpha-7 (Homo sapiens, UniProt P36544); test: Inhibition of alpha7 nAChR (unknown origin)
Chain of Neuronal acetylcholine receptor subunit alpha-7 (P36544 whole entry): as the sequence (P36544 whole entry) above

[19] = Oral bioavailability in mouse at 6 mg/kg; assay type: ADME, organism-based; conditions: in vivo
[20] = AUC (0 to 24 hrs) in nu/nu mouse xenografted with human SK-OV-3 cells measured in tumor at 30 mg/kg, po qd by uHPLC-MS/MS analysis; assay type: ADME, organism-based; set-up: time < 24 hr, route oral, dose 30 mg/kg
[21] = Half life in cynomolgus monkey at 1 mg/kg, iv; assay type: ADME, organism-based, Macaca fascicularis; conditions: in vivo
[22] = Metabolic stability in mouse hepatocytes assessed as CYP450-mediated compound metabolism by measuring half life; assay type: ADME, cell-based, Hepatocyte
[23] = Metabolic stability in rat hepatocytes assessed as CYP450-mediated compound metabolism by measuring half life; assay type: ADME, cell-based, Hepatocyte
[24] = Volume of distribution at steady state in rat at 0.5 mg/kg, iv; assay type: ADME, organism-based; conditions: in vivo
[25] = Protein binding in human plasma assessed as free fraction; assay type: ADME, cell-free
Homo sapiens = species on record: Homo sapiens; test: Inhibition of sodium channel (unknown origin) at 10 uM and 1 to 4 Hz by patch clamp method relative to control
[26] = AUC (0 to 24 hrs) in nu/nu mouse xenografted with human SK-OV-3 cells measured in tumor at 10 mg/kg, po qd by uHPLC-MS/MS analysis; assay type: ADME, organism-based; set-up: time < 24 hr, route oral, dose 10 mg/kg
[27] = Permeability of the compound at pH 7.4 by PAMPA; assay type: ADME; conditions: read-out: permeability
[28] = AUC (0 to 24 hrs) in nu/nu mouse xenografted with human SK-OV-3 cells measured in tumor at 3 mg/kg, po qd by uHPLC-MS/MS analysis; assay type: ADME, organism-based; set-up: time < 24 hr, route oral, dose 3 mg/kg
[29] = Volume of distribution at steady state in dog at 1 mg/kg, iv; assay type: ADME, organism-based, Canis lupus familiaris; conditions: in vivo
[30] = target: Indoleamine 2,3-dioxygenase 1 (Mus musculus) (UniProt P28776); test: In vivo inhibition of IDO1 in nu/nu mouse xenografted with human SK-OV-3 cells assessed as reduction in kynurenine level at 10 mg/kg, po qd by HPLC-MS/MS analysis relative to control; assay type: functional, organism-based

Structure (SMILES): C[C@@H](NC(=O)c1ccc(Cl)cc1)[C@H]1CC[C@@H](c2ccnc3ccc(F)cc32)CC1
- AUC [1]: 12.6 µM·h
- AUC [2]: 0.69 µM·h
- t1/2 [3]: 4 min
- half-life [4]: 33 min
- AUC [5]: 28.2 µM·h
- half-life [6]: > 120 min
- IC50 (Cytochrome P450 2C8): 1.39 µM
- AUC [7]: 8.7 µM·h
- Papp B→A [8]: 55 nm/s
- inhibition [9]: 45%
- AUC [10]: 5.6 µM·h
- IC50 [11]: 0.025 µM
- half-life [12]: 10 min
- IC50 [13]: 12.3 µM
- Emax (alpha7 nAChR): 20%
- IC50 (Cytochrome P450 2C9): 0.74 µM
- bioavailability [14]: 39%
- Papp A→B [15]: 88 nm/s
- half-life (Cytochrome P450): 14 min
- AUC [16]: 7.1 µM·h
- half-life [17]: > 120 min
- IC50 [18]: > 6 µM
- F [19]: 152%
- AUC at 24 h [20]: 61 µM·h
- t1/2 [21]: 2 min
- half-life [22]: 4 min
- half-life [23]: 10 min
- Vdss [24]: 0.97 L/kg
- Fu [25]: < 0.3%
- inhibition (Homo sapiens): < 20%
- AUC at 24 h [26]: 21.1 µM·h
- Papp [27]: 2830 nm/s
- AUC at 24 h [28]: 9.6 µM·h
- Vdss [29]: 3.87 L/kg
- inhibition [30]: 58%
